The values that follow come from US7728169B2, “Pharmaceutical compositions of isolated orthorhombic crystalline 4-[6-acetyl-3-[3-(4-acetyl-3-hydroxy-2-propylphenylthio)propoxy]-2-propylphenoxy]butyric acid and methods of use” (Medicinova, Inc., priority 2003, dated 2010).

Series [1] in a line: Solubility of compound (1) in ethanol/water (2:1). It counts as physicochemical. The following applies: 40° C., stirred one hour, listed as V (form A). The method, then: Samples of compound (1) (5 g) were suspended in ethanol/water (2:1, 100 mL) and stirred for one hour at temperatures of 22° C., 30° C., and 40° C., respectively. The suspensions were filtered and the solids dried in a vacuum oven at room temperature overnight to give the insoluble material. The solubilities were calculated by subtractive means based on recovered material.

Series [2] can be described thus: Solubility compared to other polymorphs (solvent not given). The format is physicochemical.
The test system of series [3] is asthma and allergic diseases. The experiment in a line: Oral activity for treatment of asthma and allergic diseases. It counts as in vivo.

SMILES strings stand for the structures. Converted amounts (≈) assume the structure as drawn. Read-outs that look alike come from different tables or passages of the source.

By Solubility is commonly meant the dissolved amount per volume that the medium holds. The low end stands for little dissolved substance, the high end for much dissolved substance. In turn, `CCCc1c(SCCCOc2ccc(C(C)=O)c(OCCCC(=O)O)c2CCC)ccc(C(C)=O)c1O` [Form V, 4-[6-acetyl-3-[3-(4-acetyl-3-hydroxy-2-propylphenylthio)propoxy]-2-propylphenoxy]butyric acid] displayed a Solubility in series [1] of 46 mg/mL (≈ 86.7 mM). Besides, the “solubility compared to other crystalline forms” value was “superior” in series [2] and “high” in series [2] (listed as form A).

On to `CCCc1c(SCCCOc2ccc(C(C)=O)c(OCCCC(=O)O)c2CCC)ccc(C(C)=O)c1O` [compound (1), 4-[6-acetyl-3-[3-(4-acetyl-3-hydroxy-2-propylphenylthio)propoxy]-2-propylphenoxy]butyric acid], for which the “oral activity for treatment of asthma and allergic diseases” value in series [3] is “orally active”.
